Results from PMC10256801, “A multicentric consortium study demonstrates that dimethylarginine dimethylaminohydrolase 2 is not a dimethylarginine dimethylaminohydrolase” (Nature Communications, 2023).

Biological target: T1, Dimethylarginine dimethylaminohydrolase 1 (DDAH1) (Homo sapiens, UniProt O94760)
T1 construct: N-terminal fusion protein with glutathione S-transferase (DDAH1-GST)
Test: MicroScale Thermophoresis (MST) with purified recombinant protein; hydrolysis to L-citrulline also measured
Settings: read-out: Binding status Kd (μM) ± confidence values

T1 sequence (O94760 whole entry, the tested form may be a part): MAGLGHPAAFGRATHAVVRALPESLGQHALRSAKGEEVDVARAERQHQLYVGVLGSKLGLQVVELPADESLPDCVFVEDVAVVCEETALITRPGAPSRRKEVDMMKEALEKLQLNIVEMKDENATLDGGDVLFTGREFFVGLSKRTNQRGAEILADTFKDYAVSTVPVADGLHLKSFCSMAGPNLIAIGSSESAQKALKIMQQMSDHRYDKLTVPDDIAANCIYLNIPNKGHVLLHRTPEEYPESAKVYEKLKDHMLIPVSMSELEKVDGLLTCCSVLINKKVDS

CN(C)C(=N)NCCC[C@H](N)C(=O)O [ADMA]
Kd: 4.27 ± 0.46 µM
